In patent publication US7968570B2, “Isoindolone compounds and their use as metabotropic glutamate receptor potentiators” (AstraZeneca AB, priority 2004, dated 2011):

biological target: T1, human mGluR2 receptor (Homo sapiens, UniProt Q14416); assay: [35S]-GTPγS binding assay of mGluR2 receptor activation; assay type: biochemical; conditions: not given
T1 construct: expressed in transfected cells
Protocol: A [^35S]-GTPγS binding assay was used to functionally assay mGluR2 receptor activation. The allosteric activator activity of compounds at the human mGluR2 receptor were measured using a [^35S]-GTPγS binding assay with membranes prepared from CHO cells which stably express the human mGluR2. The assay is based upon the principle that agonists bind to G-protein coupled receptors to stimulate GDP-GTP exchange at the G-protein. Since [^35S]-GTPγS is a non-hydrolyzable GTP analog, it can be used to provide an index of GDP-GTP exchange and, thus, receptor activation. The GTPγS binding assay therefore provides a quantitative measure of receptor activation.
Membranes were prepared from CHO cells stably transfected with human mGluR2. Membranes (30 μg protein) were incubated with test compound (3 nM to 300 μM) for 15 minutes at room temperature prior to the addition of 1 μM glutamate, and incubated for 30 min at 30° C. in 500 μl assay buffer (20 mM HEPES, 100 mM NaCl, 10 mM MgCl2), containing 30 μM GDP and 0.1 nM [^35S]-GTPγS (1250 Ci/mmol). Reactions were carried out in triplicate in 2 ml polypropylene 96-well plates. Reactions were terminated by vacuum filtration using a Packard 96-well harvester and Unifilter-96, GF/B filter microplates. The filter plates were washed 4×1.5 ml with ice-cold wash buffer (10 mM sodium phosphate buffer, pH 7.4). The filter plates were dried and 35 μl of scintillation fluid (Microscint 20) was added to each well. The amount of radioactivity bound was determined by counting plates on the Packard TopCount. Data was analyzed using GraphPad Prism, and EC50 and Emax values (relative to the maximum glutamate effect) were calculated using non-linear regression.

T1 sequence (Q14416 19-872): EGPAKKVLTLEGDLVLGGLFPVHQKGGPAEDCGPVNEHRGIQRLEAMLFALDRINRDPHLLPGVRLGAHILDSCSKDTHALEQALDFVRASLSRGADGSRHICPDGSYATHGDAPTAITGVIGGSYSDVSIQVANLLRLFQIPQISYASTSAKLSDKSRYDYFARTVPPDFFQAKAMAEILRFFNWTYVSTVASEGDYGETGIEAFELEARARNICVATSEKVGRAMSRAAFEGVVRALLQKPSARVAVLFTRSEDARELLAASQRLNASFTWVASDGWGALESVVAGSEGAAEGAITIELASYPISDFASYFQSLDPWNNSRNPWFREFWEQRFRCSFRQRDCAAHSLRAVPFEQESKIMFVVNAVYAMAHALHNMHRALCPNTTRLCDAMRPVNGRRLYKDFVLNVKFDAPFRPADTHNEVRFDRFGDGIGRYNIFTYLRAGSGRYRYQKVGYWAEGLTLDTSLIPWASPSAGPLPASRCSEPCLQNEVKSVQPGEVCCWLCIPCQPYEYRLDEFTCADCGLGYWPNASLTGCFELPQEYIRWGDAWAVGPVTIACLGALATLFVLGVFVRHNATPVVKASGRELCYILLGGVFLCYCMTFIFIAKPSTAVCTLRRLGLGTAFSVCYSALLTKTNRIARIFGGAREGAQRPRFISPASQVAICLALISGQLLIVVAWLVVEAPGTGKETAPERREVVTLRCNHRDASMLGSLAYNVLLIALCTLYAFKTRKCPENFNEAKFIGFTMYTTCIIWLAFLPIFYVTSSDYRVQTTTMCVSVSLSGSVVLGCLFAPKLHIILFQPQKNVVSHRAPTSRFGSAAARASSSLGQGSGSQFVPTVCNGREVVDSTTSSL

SMILES	EC50
O=C1c2c(Cl)cc(CC3CCN(Cc4ccncc4)CC3)cc2CN1Cc1ccc(OC(F)(F)F)cc1 [Example 182]	40 nM
Cc1cc(CC2CCN(C(C)C)CC2)cc2c1C(=O)N(Cc1ccc(OC(F)(F)F)cc1)C2 [Example 174, 5-(1-isopropyl-piperidin-4-ylmethyl)-7-methyl-2-(4-trifluorometh-oxy-benzyl)-2,3-dihydro-isoindol-1-one]	740 nM
CCN1CCC(Cc2cc(C)c3c(c2)CN(Cc2ccc(OC(F)(F)F)cc2)C3=O)CC1 [Example 166, 5-(1-Ethyl-piperidin-4-ylmethyl)-7-methyl-2-(4-trifluorometh-oxy-benzyl)-2,3-dihydro-isoindol-1-one]	520 nM
CCCN1CCC(Cc2cc(C)c3c(c2)CN(Cc2ccc(OC(F)(F)F)cc2)C3=O)CC1 [Example 172, 7-methyl-5-(1-propyl-piperidin-4-ylmethyl)-2-(4-trifluorometh-oxy-benzyl)-2,3-dihydro-isoindol-1-one]	1510 nM

same assay, conditions: membranes from CHO cells stably expressing human mGluR2; 1 μM glutamate

SMILES	EC50
O=C1c2ccc(N3CCC(CCCc4ccccc4)CC3)cc2CN1Cc1ccc(OC(F)(F)F)cc1 [Example 152, 5-[4-(3-Phenyl-propyl)-piperidin-1-yl]-2-(4-trifluoromethoxy-benzyl)-2,3-dihydro-isoindol-1-one]	510 nM
Cc1cc(N2CCN3CCCC3C2)cc2c1C(=O)N(Cc1ccc(Cl)cc1)C2 (stereo not shown) [Example 118, 2-(4-Chlorobenzyl)-5-(hexahydropyrrolo [1,2-a]pyrazin-2-yl)-7-methyl-2,3-dihydroisoindol-1-one]	810 nM
COCCN1CCN(c2ccc3c(c2)CN(Cc2ccc(OC(F)(F)F)cc2)C3=O)CC1 [Example 147, 5-[4-(2-Methoxy-ethyl)-piperazin-1-yl]-2-(4-trifluoromethoxy-benzyl)-2,3-dihydro-isoindol-1-one]	6570 nM
Cc1ccc(CN2Cc3cc(NC4CCN(C(=O)OC(C)(C)C)C4)ccc3C2=O)cc1 (stereo not shown) [Example 110, 3-[2-(4-Methyl-benzyl)-1-oxo-2,3-dihydro-1H-isoindol-5-ylamino]-pyrrolidine-1-carboxylic acid tert-butyl ester]	2520 nM
CN1CCN(c2cc(Cl)c3c(c2)CN(Cc2ccc(Cl)cc2)C3=O)CC1 [Example 133, 7-Chloro-2-(4-chlorobenzyl)-5-(4-methyl-piperazin-1-yl)-2,3-dihydroisoindol-1-one]	590 nM
Cc1cc(-c2cccnc2)cc2c1C(=O)N(Cc1ccc(Oc3ccccc3)cc1)C2 [Example 104, 7-Methyl-2-(4-phenoxy-benzyl)-5-pyridin-3-yl-2,3-dihydro-isoindol-1-one]	50 nM
O=C1c2c(Cl)cc(-c3cccnc3)cc2CN1Cc1ccc(OC(F)(F)F)cc1 [Example 105, 7-Chloro-5-pyridin-3-yl-2-(4-trifluoromethoxy-benzyl)-2,3-dihydro-isoindol-1-one]	50 nM
CCNCc1cc(C)c2c(c1)CN(Cc1ccc(OC(F)(F)F)cc1)C2=O [Example 53, 5-Ethylamino-methyl-7-methyl-2-(4-trifluoromethoxy-benzyl)-2,3-dihydro-isoindol-1-one]	6310 nM
Cc1cc(-c2ccc(CN(C)C)cc2)cc2c1C(=O)N(Cc1ccc(OC(F)(F)F)cc1)C2 [Example 86, 5-(4-Dimethylamino-methyl-phenyl)-7-methyl-2-(4-trifluoromethoxy-benzyl)-2,3-dihydro-isoindol-1-one]	60 nM
Cc1cc(CNCc2ccccn2)cc2c1C(=O)N(Cc1ccc(OC(F)(F)F)cc1)C2 [Example 40, 7-Methyl-5-{[(pyridine-2-ylmethyl)-amino]-methyl}-2-(4-trifluoromethoxy-benzyl)-2,3-dihydro-isoindol-1-one]	1450 nM
COc1cc(-c2cccnc2)cc2c1C(=O)N(Cc1ccc(OC(F)(F)F)cc1)C2 [Example 100, 7-Methoxy-5-pyridin-3-yl-2-(4-trifluoromethoxy-benzyl)-2,3-dihydroisoindol-1-one]	220 nM
COc1cc(-c2cccnc2)cc2c1C(=O)N(Cc1ccc(Cl)cc1)C2 [Example 101, 2-(4-Chloro-benzyl)-7-methoxy-5-pyridin-3-yl-2,3-dihydro-isoindol-1-one]	1160 nM
CCN1CCN(c2cc(C)c3c(c2)CN(Cc2ccc(OC(F)(F)F)cc2)C3=O)CC1 [Example 112, 5-(4-Ethylpiperazin-1-yl)-7-methyl-2-(4-trifluoromethoxy-benzyl)-2,3-dihydroisoindol-1-one]	680 nM
O=C1c2ccc(N3CCC4(CC3)C(=O)N(Cc3ccc(F)cc3)CN4c3ccccc3)cc2CN1Cc1ccc(OC(F)(F)F)cc1 [Example 153, 3-(4-Fluoro-benzyl)-8-[1-oxo-2-(4-trifluoromethoxy-benzyl)-2,3-dihydro-1H-isoindol-5-yl]-1-phenyl-1,3,8-triaza-spiro[4.5] decan-4-one]	2640 nM
Cc1cc(CNC2Cc3ccccc3C2)cc2c1C(=O)N(Cc1ccc(OC(F)(F)F)cc1)C2 [Example 48, 5-(Indan-2-ylaminomethyl)-7-methyl-2-(4-trifluoromethoxy-benzyl)-2,3-dihydro-isoindol-1-one]	410 nM
O=C(CN1CCN(c2cc(Cl)c3c(c2)CN(Cc2ccc(OC(F)(F)F)cc2)C3=O)CC1)N1CCCC1 [Example 156, 7-Chloro-5-[4-(2-oxo-2-pyrrolidin-1-yl-ethyl)-piperazin-1-yl]-2-(4-trifluoromethoxy-benzyl)-2,3-dihydro-isoindol-1-one]	320 nM
O=C1c2ccc(N3CCOCC3)cc2CN1Cc1ccc(OC(F)(F)F)cc1 [Example 150, 5-Morpholin-4-yl-2-(4-trifluoromethoxy-benzyl)-2,3-dihydro-isoindol-1-one]	8760 nM
COCCCNCc1cc(C)c2c(c1)CN(Cc1ccc(OC(F)(F)F)cc1)C2=O [Example 51, 5-[(3-Methoxy-propylamino)-methyl]-7-methyl-2-(4-trifluoromethoxy-benzyl)-2,3-dihydro-isoindol-1-one]	1800 nM
O=C1c2c(Cl)cc(Br)cc2CN1Cc1ccc(OC(F)(F)F)cc1 [Example 33, 5-Bromo-7-chloro-2-(4-trifluoromethoxy-benzyl)-2,3-dihydro-isoindol-1-one]	140 nM
COc1cc(C2=CCN(C(=O)OC(C)(C)C)CC2)cc2c1C(=O)N(Cc1ccc(OC(F)(F)F)cc1)C2 [Example 85, 4-[7-Methoxy-1-oxo-2-(4-trifluoromethoxy-benzyl)-2,3-dihydro-1H-isoindol-5-yl]-3,6-dihydro-2H-pyridine-1-carboxylic acid tert-butyl ester]	80 nM
Cc1cc(N2CCN(Cc3ccncc3)CC2)cc2c1C(=O)N(Cc1ccc(Cl)cc1)C2 [Example 143, 2-(4-Chloro-benzyl)-7-methyl-5-(4-pyridin-4-ylmethyl-piperazin-1-yl)-2,3-dihydro-isoindol-1-one]	420 nM
CCCN1CCN(c2ccc3c(c2)CN(Cc2ccc(OC(F)(F)F)cc2)C3=O)CC1 [Example 146, 5-(4-Propyl-piperazin-1-yl)-2-(4-tri-fluoromethoxy-benzyl)-2,3-dihydro-isoindol-1-one]	4420 nM
Cc1cc(CNCC(C)O)cc2c1C(=O)N(Cc1ccc(OC(F)(F)F)cc1)C2 (stereo not shown) [Example 52, 5-[(2-Hydroxy-propylamino)-methyl]-7-methyl-2-(4-trifluoromethoxy-benzyl)-2,3-dihydro-isoindol-1-one]	7020 nM
Cc1cc(N2CCCN3CCCCC3C2)cc2c1C(=O)N(Cc1ccc(OC(F)(F)F)cc1)C2 (stereo not shown) [Example 122, 7-Methyl-5-(octahydropyrido [1,2-a][1,4]diazepin-2-yl)-2-(4-trifluoromethoxy-benzyl)-2,3-dihydroisoindol-1-one]	3550 nM
Cc1cc(N2CCC(N(C)C)C2)cc2c1C(=O)N(Cc1ccc(Oc3ccccc3)cc1)C2 (stereo not shown) [Example 130, 5-(3-Dimethylamino-pyrrolidin-1-yl)-7-methyl-2-(4-phenoxy-benzyl)-2,3-dihydro-isoindol-1-one]	100 nM
Cc1cc(N2CCN(C)CC2)cc2c1C(=O)N(Cc1ccc(Cl)cc1)C2 [Example 117, 2-(4-chlorobenzyl)-7-methyl-5-(4-methylpiperazin-1-yl)-2,3-di-hydroisoindol-1-one]	1450 nM
CCN(CC)C(=O)C1CCCN(Cc2cc(C)c3c(c2)CN(Cc2ccc(OC(F)(F)F)cc2)C3=O)C1 (stereo not shown) [Example 50, 1-[7-Methyl-1-oxo-2-(4-trifluoromethoxy-benzyl)-2,3-dihydro-1H-isoindol-5-ylmethyl]-piperidine-3-carboxylic acid diethylamide]	1810 nM
COc1cc(N2CCN3CCCC3C2)cc2c1C(=O)N(Cc1ccc(Cl)cc1)C2 (stereo not shown) [Example 129]	6340 nM
CN1CCN(c2cc(Cl)c3c(c2)CN(Cc2ccc(OC(F)(F)F)cc2)C3=O)CC1 [Example 131, 7-Chloro-5-(4-methyl-piperizin-1-yl)-2-(4-trifluoromethoxy-benzyl)-2,3-dihydro-isoindol-1-one]	610 nM
Cc1cc(CNCCc2ccccc2)cc2c1C(=O)N(Cc1ccc(OC(F)(F)F)cc1)C2 [Example 46, 7-Methyl-5-(phenethylamino-methyl)-2-(4-trifluoromethoxy-benzyl)-2,3-dihydro-isoindol-1-one]	630 nM
